Measurements taken from patent EP3682883A1, “QUINOLINE DERIVATIVE FOR TREATMENT OF NEUROENDOCRINE TUMORS” (Chia Tai Tianqing Pharmaceutical Group Co., Ltd., priority 2017, dated 2019).

Columns and labels:
Assay type in all cases: in vivo, human
[1] = test system: ampullary neuroendocrine tumor; assay: Clinical case Example 10: treatment of a patient, CT scan of metastatic lesions; details: prior therapy in patient history; 10mg qd orally; CT and MRI on May 25, 2018
From the text: A patient, underwent a laparotomy on August 18, 2016, the gallbladder, distal part of the stomach, duodenum, and part of the pancreas were removed. […] The patient was diagnosed with ampullary neuroendocrine tumor (high proliferative activity, mitotic count, […]) on November 4, 2016, which was located in the ampulla, the common bile duct, duodenal papilla and major pancreatic duct were invaded, intravascular tumor thrombus was visible and pancreatic tissue was also invaded, immunohistochemistry: AFP (-).
10mg of everolimus (qd) was administered orally from February 7 to May 25, 2018, and the efficacy was evaluated as SD on March 29, 2018.
A daily dose of 12 mg of dihydrochloride of Compound I capsule was given once a day from July 4, 2018 (two-week administration period and one-week withdrawal period, i.e. three weeks as one treatment cycle).

[2] = test system: retroperitoneal neuroendocrine tumor; assay: Clinical case Example 5: treatment of a patient, CT scan of target lesions; details: prior therapy in patient history
[3] = test system: neuroendocrine tumor which tend to be atypical carcinoid; assay: Clinical case Example 4: treatment of a patient, CT scan of target lesions; details: prior therapy in patient history; 4 mg once a month; after two cycles
Experimental: A patient was diagnosed with neuroendocrine tumor which tend to be atypical carcinoid after a chest tumor puncture by pathology exam, then the patient was treated with chemotherapy of paclitaxel, etoposide and cisplatin for three cycles, a CT scan was performed after the treatment, efficacy of the therapy was evaluated as SD, followed by Right anterior mediastinal mass resection and partial right upper lobe resection. […] Local chest radiotherapy was performed in the first to second month after operation, and evaluated as SD after the treatment, during which III° radiation esophagitis occurred. […] Temozolomide and capecitabine was then given for 2 cycles from the 23rd month to 25th month after operation, and efficacy was evaluated as SD (large), during this period, pain in both lower extremities occurred, and even got worse. Then 4 mg of zoledronic acid was given once a month, the efficacy was evaluated as PD by CT scan after two cycles of the treatment, followingly, Shanlong (octreotide acetate microspheres for injection) was given for 1 cycle, the efficacy was evaluated as PD by CT scan which was performed after 27 months postoperatively, and the sum of the target lesion diameters was 179 mm. […]

## CO[C@H]1C[C@@H]2CC[C@@H](C)[C@@](O)(O2)C(=O)C(=O)N2CCCC[C@H]2C(=O)O[C@H]([C@H](C)C[C@@H]2CC[C@@H](OCCO)[C@H](OC)C2)CC(=O)[C@H](C)/C=C(\C)[C@@H](O)[C@@H](OC)C(=O)[C@H](C)C[C@H](C)/C=C/C=C/C=C/1C [everolimus]
[1]
  CT and MRI result (prior therapy): the disease progressed

## CCN(CC)CCNC(=O)c1c(C)[nH]c(/C=C2\C(=O)Nc3ccc(F)cc32)c1C [sunitinib malate]
[2]; after Saisheng and thymosin
  efficacy evaluated (prior therapy): PD (the sum of the diameters of target lesions of tumor increased by more than 20% from the baseline level)

## O=P(O)(O)C(O)(Cn1ccnc1)P(=O)(O)O [zoledronic acid]
[3]
  efficacy evaluated by CT scan (prior therapy): PD (the sum of the diameters of target lesions of tumor increased by more than 20% from the baseline level)

## thymosin
[2]; Saisheng and thymosin given together
  reexamination (prior therapy): no response
